What was measured:
sows and piglets = experiment: Superoxide dismutase (SOD) activity in serum of sows and piglets (Example 10); assay type: in vivo, pig; details: for Activity of superoxide dismutase (SOD) in serum of piglets: piglets at 21 days
Description: The performance following criteria were monitored during the trial: (i) Sows response criteria (actual parity, farrowing rate, culled sows—number and reasons, wean-to-mating interval, farrowing rate in the next cycle); (ii) litter response criteria (number of piglets, total, alive, stillborn, mummies; weight of piglets and litters; survival). The following biochemical (blood) criteria were monitored during the trial for the sows (mating, farrowing and weaning), piglets 21st day: (i) glutathione peroxidase (GPx) activity; (ii) superoxide dismutase (SOD) activity; (iii) total antioxidant status (TAS); (iv) vitamin E content; (v) vitamin A content.
To determine the oxidative status, the blood samples were collected from sows and piglets into tubes with lithium anticoagulant—received whole blood for analysis. At the same time blood samples were taken for blood clot. They were centrifuged (1500 rpm, 15 Temp. 4° C.) and obtained serum was pipetted into separate tubes.
In studies of oxidative status of sows and piglets were used suitable to each of the indicators, the reagent kits from Sigma-Aldrich. Determination was made in accordance with the descriptions of the rules and procedures specified by the manufacturer.
The content of the TAS (total antioxidant status) were determined using the Antioxidant assay kit (Cat. No CS0790), the activity of SOD (superoxide dismutase) was determined using SOD determination kit 19160, the activity of GPx (glutathione Peroxide assai Cellular Activity Kit) Cat. No CGP1. The content of vitamins A and E by McMurray and Blanchflower 1979 (Journal of Chromatography 178, 525-531.). TAS
Serum samples (20 ul) in duplicate were incubated at 37° C. for 20 minutes with the working solution WST (tetrazolium sodium salt, 2-(4-lodophenyl)-3 (4-nitrophenyl0-5-(2,4-disulfophenyl) 2H-tetrazolium, monosodium salt) (200 pl) and the enzyme working solution (20 pl). Simultaneously sample blanks were performed (two reagents, and blank for each sample) and a calibration curve based on serial dilutions of SOD in a range of 200 to 0,001 U/ml. Absorbance of the blank, standards and test samples read on a spectrophotometer at a wavelength of 450 nm. WST produces a water-soluble formazan dye upon reduction with a superoxide anion. The rate of the reduction with O2 are linearly related to the xanthine oxidase (XO) activity. The SOD activity is measured as the degree of blocking the formation of the formazan dye.

[1] = system: livers of Ross 308 chicks; experiment: Chick liver SOD and GSSG analysis, OXISELECT kits (Example 5); assay type: in vivo, chicken; details: breeder diet
Description: Group egg weights were recorded at E0. At E7 and E18, all eggs were candled and empty eggs or eggs containing dead embryos were removed (early dead E0-E7, mid dead E8-E18). At E18 eggs were transferred to the hatching baskets after candling. At hatch (E21) the number of dead chickens, late dead embryos (E19-E21) and pipped eggs were recorded. The number of hatched chickens was recorded per replicate, as well as average chick weight. Hatchability was calculated as percentage of total eggs set. Sex was determined by feather sexing, female chickens were euthanized by CO2 and disposed according to local regulations. Per experimental unit, five male chickens were selected for the grow-out period and allocated to broiler grower pens. Only chickens with an average body weight, completely dry, showing active movement and with a good navel score were selected. After this selection one male chicken per experimental unit was selected for dissection. Sample chickens were individually weighed and killed by cervical dislocation to measure remaining yolk-sac weights, yolk-free body mass (“YFBM”), liver weight, chick length, and shank length of both shanks. The livers were immediately placed on dry ice and after dissection stored at −20° C. for further analysis (“SOD and GSSG”). Relative asymmetry was calculated according to the following formula: […]
Furthermore, no treatment effects were found on several chick quality parameters (YFBM, chick length, and relative asymmetry). OXISELECT Superoxide Dismutase Activity Assay (“SOD”) and OXISELECT Total Glutathione (GSSG/GSH) Assay (“GSSG”) kits, available commercially from Cell Biolabs, Inc., San Diego, Calif., USA, were used to analyze chick livers.

[2] = system: Cobb500 fast-feathering male broilers; experiment: Grow out of offspring, performance till slaughter age (Example 3); assay type: in vivo, chicken

Structure (SMILES): Cc1c(C)c2c(c(C)c1O)CCC(C)(CCCC(C)CCCC(C)CCCC(C)C)O2 (racemic) [Vitamin E, DL-α-tocopherol]
- Activity of superoxide dismutase (SOD) in serum of sows (sows and piglets; Breeding, Group 2: vitamin E 50/75 mg/kg diet): 71.43 U/ml
- Activity of superoxide dismutase (SOD) in serum of sows (sows and piglets; Breeding, Group 3: vitamin E 100/150 mg/kg diet): 73.28 U/ml
- Activity of superoxide dismutase (SOD) in serum of sows (sows and piglets; Farrowing, Group 2: vitamin E 50/75 mg/kg diet): 77.14^B U/ml
- Activity of superoxide dismutase (SOD) in serum of sows (sows and piglets; Farrowing, Group 3: vitamin E 100/150 mg/kg diet): 79.60^AB U/ml
- Activity of superoxide dismutase (SOD) in serum of sows (sows and piglets; Weaning, Group 2: vitamin E 50/75 mg/kg diet): 79.50^C U/ml
- Activity of superoxide dismutase (SOD) in serum of sows (sows and piglets; Weaning, Group 3: vitamin E 100/150 mg/kg diet): 90.93^B U/ml
- Activity of superoxide dismutase (SOD) in serum of piglets (sows and piglets; Group 2: vitamin E 50/75 mg/kg sow diet): 100.61^B U/ml
- Activity of superoxide dismutase (SOD) in serum of piglets (sows and piglets; Group 3: vitamin E 100/150 mg/kg sow diet): 129.54^Ab U/ml
- GSSG ([1]; vitamin E equivalence 80 ppm): 4.27 µM
- SOD units ([1]; vitamin E equivalence 80 ppm): 0.776 units
- GSSG ([1]; vitamin E equivalence 160 ppm): 4.48 µM
- SOD units ([1]; vitamin E equivalence 160 ppm): 0.777 units
- start weight of the chickens ([2]; after placement in cages, day 0): 40.9 g
- F:G corrected for BW ([2]; corrected to 2,181 gram body weight at 35 days of age): 1.627
- ADFI 0-3 d ([2]; offspring): 10.1 g
- ADFI 0-14 d ([2]; offspring): 37.1 g
- ADFI 0-28 d ([2]; offspring): 82.1 g
- ADFI 0-35 d ([2]; offspring): 101.7 g
- ADFI 3-14 d ([2]; offspring): 44.5 g
- ADFI 14-35 ([2]; offspring): 144.8 g
- ADFI 14-28 d ([2]; offspring): 127.0 g
- ADFI 28-35 d ([2]; offspring): 180.3 g
- ADG 0-3 d ([2]; offspring): 9.5 g
- ADG 0-14 d ([2]; offspring): 29.3 g
- ADG 0-28 d ([2]; offspring): 54.4 g
- ADG 0-35 d ([2]; offspring): 62.2 g
- ADG 3-14 d ([2]; offspring): 34.7 g
- ADG 14-35 ([2]; offspring): 84.2 g
- ADG 14-28 d ([2]; offspring): 79.6 g
- ADG 28-35 d ([2]; offspring): 93.6 g
- BW 0 d ([2]; offspring): 40.9 g
- BW 3 d ([2]; offspring): 69.4 g
- BW 14 d ([2]; offspring): 451 g
- BW 35 d ([2]; offspring): 2219 g
- F:G 0-14 d ([2]; offspring): 1.268
- F:G 0-28 d ([2]; offspring): 1.509
- F:G 0-35 d ([2]; offspring): 1.635
- F:G 3-14 d ([2]; offspring): 1.283
- F:G 14-28 d ([2]; offspring): 1.598
- F:G 14-35 d ([2]; offspring): 1.720
- F:G 28-35 d ([2]; offspring): 1.929
- EPI excl ([2]; offspring, 35 d): 388
- EPI, excl mortality ([2]; offspring, 35 d): 369
- Mortality ([2]; offspring, breeder diet 80 ppm vitamin E or 40 ppm vitamin E+40 ppm PROVIOX 50): 4.6%
- F:G 0-3 d ([2]; offspring, kg feed intake:kg gain): 1.088

— patent US20170119020A1, “METHOD OF FEEDING AN ANIMAL” (CARGILL, INCORPORATED, priority 2014, published 2017)
